Source: the NIST ThermoML archive (doi:10.1021/je700260f)

Conditions: 283.15 K, Liquid, Vibrating tube method

FC(C(F)(F)F)C(F)(F)F [1,1,1,2,3,3,3-heptafluoropropane]
Conditions	mass density [kg/m3]
10458 kPa	1500.1
10488 kPa	1500.2
10528 kPa	1500.3
10559 kPa	1500.4
10588 kPa	1500.6
10774 kPa	1501.4
10816 kPa	1501.5
10838 kPa	1501.7
10868 kPa	1501.8
10899 kPa	1502
10925 kPa	1502.1
10959 kPa	1502.2
10981 kPa	1502.4
11024 kPa	1502.5
11055 kPa	1502.6
12114 kPa	1507
12149 kPa	1507.1
12177 kPa	1507.2
12214 kPa	1507.4
12245 kPa	1507.6
12281 kPa	1507.6
12311 kPa	1507.7
12342 kPa	1507.9
12373 kPa	1508
12405 kPa	1508.2
12437 kPa	1508.3
12476 kPa	1508.3
12508 kPa	1508.5
12544 kPa	1508.6
12576 kPa	1508.7
12608 kPa	1509
12641 kPa	1509.1
12677 kPa	1509.2
12709 kPa	1509.4
12748 kPa	1509.5
12780 kPa	1509.7
13258 kPa	1511.5
13353 kPa	1512
14612 kPa	1516.6
14643 kPa	1516.8
14673 kPa	1516.9
14713 kPa	1517.2
14739 kPa	1517.4
14769 kPa	1517.4
14799 kPa	1517.6
14834 kPa	1517.7
14886 kPa	1517.8
14927 kPa	1517.9
14957 kPa	1518.1
14998 kPa	1518.3
15045 kPa	1518.4
15086 kPa	1518.5
15117 kPa	1518.8
15153 kPa	1518.8
15184 kPa	1518.9
15215 kPa	1519.2
15256 kPa	1519.2
15287 kPa	1519.4
15328 kPa	1519.4
15365 kPa	1519.5
15400 kPa	1519.8
15442 kPa	1519.9
15474 kPa	1520
15505 kPa	1520
15536 kPa	1520.4
15572 kPa	1520.5
15607 kPa	1520.5
15643 kPa	1520.7
15673 kPa	1520.8
15714 kPa	1521
16087 kPa	1522.4
16114 kPa	1522.4
16151 kPa	1522.5
16175 kPa	1522.7
16606 kPa	1524.3
16678 kPa	1524.6
16711 kPa	1524.5
17447 kPa	1527.3
17481 kPa	1527.3
17515 kPa	1527.4
17545 kPa	1527.7
17593 kPa	1527.7
18341 kPa	1530.5
18418 kPa	1530.6
18457 kPa	1530.8
18487 kPa	1530.8
18526 kPa	1531.1
18571 kPa	1531.1
19435 kPa	1534.2
19479 kPa	1534.3
19508 kPa	1534.3
19536 kPa	1534.5
19574 kPa	1534.6
19602 kPa	1534.7
19640 kPa	1534.9
19673 kPa	1535
19706 kPa	1535.1
19739 kPa	1535.3
19785 kPa	1535.4
19809 kPa	1535.4
19854 kPa	1535.6
19878 kPa	1535.6
19911 kPa	1535.8
19949 kPa	1535.8
19977 kPa	1536.1
20004 kPa	1536
20033 kPa	1536.1
20218 kPa	1536.8
20257 kPa	1536.9
20300 kPa	1537.1
20333 kPa	1537.1
20396 kPa	1537.4
20492 kPa	1537.8
20536 kPa	1538
20566 kPa	1538
20605 kPa	1538.1
20635 kPa	1538.2
20671 kPa	1538.4
20709 kPa	1538.4
20746 kPa	1538.6
20776 kPa	1538.6
20810 kPa	1538.7
20840 kPa	1538.9
20879 kPa	1539.1
20918 kPa	1539.3
20961 kPa	1539.3
20991 kPa	1539.4
21029 kPa	1539.6
21058 kPa	1539.4
21099 kPa	1539.7
21129 kPa	1539.8
21172 kPa	1539.9
21208 kPa	1540.1
21242 kPa	1540.3
21281 kPa	1540.4
21310 kPa	1540.4
21350 kPa	1540.7
21418 kPa	1540.9
21453 kPa	1540.9
21503 kPa	1541.2
21541 kPa	1541.2
21571 kPa	1541.3
21610 kPa	1541.4
21645 kPa	1541.5
21684 kPa	1541.6
21709 kPa	1541.6
21753 kPa	1541.9
21784 kPa	1542
21834 kPa	1542.2
21870 kPa	1542.3
21901 kPa	1542.3
21936 kPa	1542.5
21972 kPa	1542.7
22011 kPa	1542.7
22041 kPa	1542.8
22080 kPa	1543.1
22115 kPa	1543.2
22145 kPa	1543.2
22190 kPa	1543.1
22231 kPa	1543.5
22261 kPa	1543.6
22302 kPa	1543.7
22349 kPa	1543.9
22379 kPa	1543.9
22424 kPa	1544
22459 kPa	1544.1
22539 kPa	1544.5
22579 kPa	1544.6
22710 kPa	1545.1
22747 kPa	1545.1
22782 kPa	1545.2
22829 kPa	1545.3
22864 kPa	1545.6
22974 kPa	1545.8
23050 kPa	1545.9
23131 kPa	1546.2
23178 kPa	1546.5
23230 kPa	1546.7
23275 kPa	1546.8
23311 kPa	1546.9
23342 kPa	1546.9
23378 kPa	1547.1
23418 kPa	1547.2
23678 kPa	1548
23750 kPa	1548.3
23792 kPa	1548.5
24059 kPa	1549.2
24099 kPa	1549.4
24146 kPa	1549.5
24192 kPa	1549.5
24228 kPa	1549.8
24269 kPa	1549.9
24309 kPa	1550.1
24608 kPa	1550.8
24649 kPa	1551
24695 kPa	1551.2
24731 kPa	1551.2
24761 kPa	1551.4
24807 kPa	1551.5
24838 kPa	1551.8
24869 kPa	1551.8
24920 kPa	1551.9
24950 kPa	1552
24990 kPa	1552.1
25031 kPa	1552.2
